Laboratory results as given in US12714682B2, “Calixarene compounds and uses thereof” (UNIVERSITÄT WIEN, priority 2019, dated 2026).
“Also recorded” adds a separate entry of the source.

Legend:
LDL-R = LDL-R immunoblot in HeLa cells; assay type: cell-based, human; details: 50 or 500 μM, 24 or 48 hours, no signal in control
Protocol: As illustrated in the Table 1 (FIG. 10), the SCA-744 affects the expression of several genes involved in lipid metabolism, such as the Low-density Lipoprotein Receptor, a major determinant of cholesterol levels in plasma. LDLR. […] To assess directly the effect of SCA-744 on the level of LDL-R expression, HeLa cells were treated with SCA-744 at 50 or 500 μM concentrations for 24 or 48 hours. Cells were harvested, cell lysate prepared and then analysed by immunoblotting using an anti-human LDL-R antibody (C7: sc-18823, Santa Cruz Biotechnologies).

[1] = test system: THP-1 human monocytic cell line; experiment: LPS-stimulated THP-1 macrophage cytokine production (LEGENDplex); assay type: cell-based
Protocol: A specific anti-inflammatory effect or activity of a compound is proven, if the compound can decrease the production of one of IL-1B, IL-6 and TNFα in human THP1 macrophages following LPS stimulation, as determined by a standard assay: THP-1 human monocytic cell lines are treated with 100 nM of Phorbol 12-myristate 13-acetate (PMA) for 48 h to induce mature macrophage-like state. Cells are then stimulated with 100 ng/ml of LPS in the absence and presence of 500 μM of compound. After 6 hours, supernatants of treated and untreated cells are collected, and cytokine levels determined using the Human Inflammatory panel LEGENDplex Human Pro-inflammatory Chemokine Panel (Cat. No. 740118). A positive result is considered if the compound is capable of reduce or block the production of IL-1β, IL-6, and TNFα in human THP1 macrophages after LPS stimulation.
Following cells were treated with [10 ng/ml] LPS in the absence and presence 10, 100 and 500 μM of SCA-744. Cytokine levels were determined by LEGENDplex™ Human Inflammation Panel assay from BioLegend. The bar heights represent the concentration means compared to LPS alone of 3 independent experiments carried out in triplicates.
Cells were treated with 100 nM of Phorbol 12-myristate 13-acetate (PMA) for 48 h to induce mature macrophage-like state. Cells were then stimulated with 100 ng/ml of Lipopolysaccharides (LPS) in the absence and presence of 500 μM of SCA-744. After 6 hours, supernatants of treated and untreated cells were collected and the levels of three major pro-inflammatory cytokines TNF-α, IL-6 and IL-1ß were determined using the Human Inflammatory panel of LEGENDPLEX Multi-Analyte Flow assay.

Osteopontin (OPN) = experiment: 15N-1H HSQC NMR binding to osteopontin
Protocol: In order to verify the predicted heparan sulfate mimicking activity of SCA-744, its physical interaction was probed with a prototypical HS-binding protein Osteopontin (OPN), a component of the extracellular matrix (ECM). To this end, NMR spectroscopy was used to directly probe the interaction and map the location of the interaction site along the protein backbone. The experimental strategy was as follows: First, ^15N-labelled OPN was prepared following well-established molecular biology technology techniques. Individual residue positions are directly monitored via the so-called ^15N-^1H Heteronuclear Single-Quantum Coherence (HSQC) spectroscopy, where individual cross peaks in the two-dimensional (2D) frequency spectrum corresponds to individual residue positions (amino acids) of the protein. Ligand binding changes the chemical environment of residues located in the binding site and leads to a change in the HSQC spectrum. Since the signal assignment is available, the residue positions which are affected by ligand binding can easily be identified by comparing HSQC spectra of the apo (ligand-free) and ligand-bound state of the protein (FIG. 7A). […] It is very convenient to analyze the chemical shift changes (induced by ligand binding) as a function of residue positions (FIG. 7B,C). Residues that display the largest chemical shift changes are typically part of the binding interface. […] Therefore, it can be concluded that SCA-744 and HS share the same ligand interaction sites and therefore are in competition for binding.

[2] = Cytotoxicity, CellTiter-Glo cell viability; assay type: cell-based; details: human, HEK 293 cells (printed as HEK 293 neuroblastoma cell lines), 72 h treatment, read-out: EC50 cytotoxicity (cell viability, ATP)
Protocol: FIG. 19.: In-vitro assessment of SCA-744 (A) and SCA-754 (B) cytotoxicity. Experiments were performed using HEK 293 […] cell lines. The effect of SCA-744 and SCA-754 on cell viability was assessed using a standard ATP, CellTiter-Glo® Luminescent Cell Viability Assay following 72 hours treatment.
In vitro assessment of cytotoxicity of SCA-744 and SCA-754 in mammalian cells. 72 h following SCA-744 and SCA-754-treatment, cell viability was assessed using a standard ATP method, CellTiter-Glo® Luminescent Cell Viability Assay.

C57BL/6J mice = experiment: LPS-induced acute lung inflammation model: lung histopathology; assay type: in vivo; details: SCA-744 60 mg/kg i.p.
Protocol: Acute lung inflammation was induced by intratracheal administration of 100 μg LPS (Escherichia coli O111:B4; Sigma Aldrich, St. Louis, MO, USA) dissolved in 60 μl sterile phosphate buffered saline (PBS) under ketamine (120 mg/kg ip.; Calypsol, Gedeon Richter Plc., Budapest, Hungary) and xylazine (6 mg/kg ip.; Sedaxylan, Eurovet Animal Health B.V., Bladel, Netherlands) anaesthesia. 24 h after administration, respiratory function parameters were assessed, and lung samples were harvested for histopathological evaluation.
SCA-744 (60 mg/kg) and its vehicle were injected intraperitoneally (i.p.), 24 h, 12 h, 20 min before and 12 h after intratracheal administration of LPS. […] 24 h and 20 min before LPS treatment. Respiratory function measurement was performed 24 h after LPS administration
Excised lung tissue samples were formalin-fixed (6%) and embedded in paraffin, 5 μm sections cut and stained with haematoxylin-eosin for histological analysis. Assessment of airway inflammation was performed in a blind manner in order to evaluate perivascular/peribronchial edema, neutrophil, macrophage and lymphocyte inflammatory cell infiltration as well as goblet cell metaplasia on a semiquantitative scale ranging from 0 to 3 in 2 fields of vision from three depths of lung tissue from each animal.

mice = experiment: CFA-induced chronic arthritis model: joint histology; assay type: in vivo; details: 60 mg/kg i.p. daily, 21-day period
Protocol: The chronic arthritis was induced by intraplantar (i.pl.) injection of 20 μl complete Freund's adjuvant (CFA, heat-killed Mycobacterium suspended in paraffin oil, 1 mg/ml; Sigma Aldrich, St. Louis, MO, USA) into the right hind paw and 20 μl subcutaneously (s.c.) into the tail root. An additional s.c. injection (20 μl) was administered on the following day (day 1) into the tail root in order to potentiate the systemic effects mimicking the human condition.
The excised tibiotarsal joints are fixed in 4% buffer formaldehye, decalcified and paraffin-embedded, sliced into sections (5 μm) and stained with hematoxylin and esosin. Arthritic changes are scored by a blinded observer using a scale of 0 to 3 according to 1) mononuclear cells infiltration into areolar tissue, 2) synovial hyperplasia, 3) cartilage destruction, 4) bone erosion.

Q: With `O=S(=O)(O)c1cc2c(O)c(c1)Cc1cc(S(=O)(=O)O)cc(c1O)Cc1cc(S(=O)(=O)O)cc(c1O)Cc1cc(S(=O)(=O)O)cc(c1O)C2` [SCA-744, 4-sulfocalix[4]arene] as the molecule, how does the “LDL-R protein (immunoblot)” value (LDL-R) read?
A: Its value is “induces the expression of LDLR; also recorded: the LDL-R was detected in the cell lysates”.

Q: What about the “inhibition of LPS-induced TNF-α, IL-ß and IL-6” value ([1]; 10 ng/ml LPS, 10, 100 and 500 μM, FIG. 2) of the same molecule?
A: Its value is “Dose-dependent inhibition”.

Q: What about the “pro-inflammatory cytokine levels (TNF-α, IL-6, IL-1ß) in culture supernatant” value ([1]; 500 μM, 100 ng/ml LPS, 6 hours, PMA-differentiated THP-1) of the same molecule?
A: The value was “significantly decreased”.

Q: What about the “binding to OPN (HSQC spectra ligand-free vs ligand-bound)” value (Osteopontin (OPN); 15N-labelled OPN) of the same molecule?
A: Its value is “binds to a heparan sulfate binding protein, osteopontin; also recorded: unambigious proof for SCA-744 binding to OPN”.

Q: And the “binding sites on OPN (chemical shift changes by residue)” value (Osteopontin (OPN); HS compared with SCA-744)?
A: The value was “overlapping binding sites”.

Q: What about the EC50 at 72 h [2] of the same molecule?
A: Its EC50 at 72 h is 2 mM.

Q: And the “pathological changes in perivascular oedema and perivascular/peribronchial infiltration by neutrophils and macrophages” value (C57BL/6J mice)?
A: The value was “prevented or greatly reduced the pathological changes”.

Q: And the “semiquantitative pathology scores (oedema, granulocytes, macrophages, composite; scale 0 to 3)” value (C57BL/6J mice; dexamethasone 5 mg/kg ip.)?
A: The value was “not statistically significantly different from untreated controls”.

Q: And the “synovial hyperplasia score (scale 0 to 3)” value (mice)?
A: Its value is “significantly lower”.
